Tests used:
[1] = test system: Six2-GFP+ NPCs; assay: NPSR-based 3D aggregate culture of primary NPCs (srNPC derivation, long-term expansion, component withdrawal); assay type: cell-based, mouse; conditions: each of six components subtracted, period as short as 4 days
Description: NPCs in mouse first appear around embryonic day 11.5 (E11.5) and mark the onset of nephrogenesis. In mice, NPCs exhaust shortly after birth, around postnatal day 3 (P3), after their last wave of differentiation into nephrons. Lineage tracing experiments have established SIX2 as a specific NPC marker. Available mouse strain with GFP cassette knocked in the Six2 locus (Six2^GCE) facilitates purification of Six2-GFP+ population from embryonic or neonatal mouse kidneys by fluorescence activated cell sorting (FACS). To screen for conditions conducive to in vitro expansion of NPCs Six2-GFP+ cells were isolated from E13.5 embryonic kidneys of Six2^GCE mice. Considering that in vivo NPCs are tightly packed together, it was hypothesized that the cell-cell contact might play a role in their survival and proliferation. Thus, to better preserve the native microenvironment, sorted Six2-GFP+ NPCs were transferred into U-bottom low-attachment 96-well plates to form 3D aggregates. In base medium supplemented with serum alone NPC aggregates could form.
The optimal condition supportive of NPC self-renewal in vitro was determined by screening growth factors and chemical inhibitors for known signaling pathways implicated in regulating NPC survival, self-renewal, and differentiation in vivo as well as other signaling pathways that were not previously reported. Cell viability, growth rate, and GFP signal were considered among other criteria. Through successive testing a novel culture condition was established containing a cocktail of BMP7, FGF2, Heparin, Y27632, LIF, and CHIR99021 that promotes long-term in vitro expansion of Six2-GFP+ NPCs with high purity (it was named NPC self-renewal medium, or NPSR medium) (FIG. 1A). Of note is that isolated Six2+ NPCs have been propagated in this culture for more than one year and more than 70 passages. The established NPC lines were designated as self-renewable NPCs (srNPCs) due to their unlimited proliferative potential. srNPCs grow fast under this culture condition. Starting with 3,000 cells, after 5 days, the aggregate can grow to around 1 mm in diameter containing around 100,000 cells (FIG. 1B and FIG. 1C). srNPC aggregates maintain stable growth rate after long term passages with 6 to 7 doublings per passage (FIG. 1D). […] Moreover, similar results were obtained when SIX2 and other NPC marker gene expressions were quantified by immunostaining: SIX2+ (˜96.2%), SALL1+ (˜99.1%), CITED1+ (˜96.1%) (FIG. 1E). […] To this end each of the six components were subtracted from NPSR medium and evaluated the effects on srNPCs.
It was determined whether NPSR culture could also support the derivation of srNPCs from other developmental stages harboring Six2+ populations. […]

[2] = test system: nephron organoids; assay: Mouse nephron organoid generation and chemical treatment; assay type: cell-based
Description: Given kidney's primary function in plasma filtration and metabolic homeostasis, drug-induced nephrotoxicity is common and constitutes a major consideration during the development of new therapeutic drugs. Currently, drug toxicity screening is largely performed using monolayer cultured immortalized kidney cells. Cells in monolayer culture, however, lack an intact 3D nephron structure and are thus limited for accurate prediction of a drug's effect on kidney function. Another layer of complexity during drug screening using immortalized cell lines relates to genetic abnormalities. […] A screen was done to determine conditions that allow efficient organoid generation from srNPCs. […] Committed srNPCs were designated as fate-specified NPCs or FS-NPCs. FS-NPCs could further differentiate autonomously and form nephron organoids marked by numerous tubular formations (FIG. 3B). Whole-mount staining of obtained nephron organoids identified numerous PODXL+/WT1+ glomeruli, LTL+ proximal tubules and CDH1+ distal tubules. The transition from srNPCs via FS-NPCs to nephron organoids was rapid (as short as 7 days), highly efficient and composed of all major nephron segments representing the glomeruli and proximal and distal tubules.
In vivo, NPCs first differentiate to pretubular aggregates (PTA) and renal vesicles (RV) before further maturation to form the segmented renal tubules. To determine which stage FS-NPCs likely correspond to, the expression of common PTA and RV markers was checked. […] Immunofluorescence studies confirmed protein expression of both PTA/RV markers (LHX1 and PAX8) and NPC markers (SIX2 and SALL1) in FS-NPCs.
The utility of srNPC-derived organoids for renal toxicity testing was determined. […]
CD2AP is an important interacting protein for NEPHRIN and PODOCIN and is necessary for proper glomerulus functions and mutations in CD2AP are associated with sporadic nephrotic syndrome and focal segmental glomerulosclerosis (FSGS). […] Consistent with the hypothesis, Cd2ap was expressed in wild type (#2) while barely detected in gene-disrupted (#1 and #3) organoids (FIG. 3E). […]

C[C@@H](N)[C@H]1CC[C@H](C(=O)Nc2ccncc2)CC1 [Y27632]
effect of removal of the component from NPSR medium on srNPCs [1]: slower cell growth

lipopolysaccharide [LPS]
glomerulus injury in nephron organoids (morphology, active Caspase 3) ([2]; 20 μg/ml, two-day exposure, day 7 organoids): specific damages in the glomerulus
apoptotic cells (active Caspase 3) in Cd2ap-deficient versus wild type organoids ([2]; low dosage 10 μg/ml, two days, tetO srNPC lines): accumulated more apoptotic cells than the wild type

Heparin
effect of removal of the component from NPSR medium on srNPCs [1]: slower cell growth

LIF: leukemia inhibitory factor protein, an interleukin 6 class cytokine
effect of removal of the component from NPSR medium on srNPCs [1]: loss of GFP signal

C[C@H](NC(=O)Cc1cc(F)cc(F)c1)C(=O)N[C@H](C(=O)OC(C)(C)C)c1ccccc1 [DAPT]
effect on proximal tubule and glomerulus differentiation ([2]; 5 μM, day 2 to day? (FS-NPCs to nephron organoids)): both proximal tubules and glomerulus differentiation were inhibited

FGF2: fibroblast growth factor, NPSR medium component
effect of removal of the component from NPSR medium on srNPCs [1]: slower cell growth
